# Experimental data as given in US11053204B2, “Pyrimidinyloxy benzene derivatives as herbicides” (FMC Corporation, priority 2015, dated 2021).
# Columns and labels:
# Format in all cases: in vivo
# rice (Oryza sativa) = assay: Test B flooded paddy test, plant response rating; settings: 250 g ai/ha; Flood; scale of 0 to 100 where 0 is no effect and 100 is complete control; 13 to 15 days
# Outline: (§1)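 Greenhouse pots flooded to 3 cm above soil at time of treatment received compound via the water, which stayed at that level.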
# [1] = test system: sedge, umbrella (small-flower umbrella sedge, Cyperus difformis); assay: Test B flooded paddy test, plant response rating; settings: 250 g ai/ha; Flood; scale of 0 to 100 where 0 is no effect and 100 is complete control; 13 to 15 days
# Outline: as §1
# [2] = test system: barnyardgrass (Echinochloa crus-galli); assay: Test B flooded paddy test, plant response rating; settings: 250 g ai/ha; Flood; scale of 0 to 100 where 0 is no effect and 100 is complete control; 13 to 15 days
# Outline: as §1
# [3] = test system: ducksalad (Heteranthera limosa); assay: Test B flooded paddy test, plant response rating; settings: 250 g ai/ha; Flood; scale of 0 to 100 where 0 is no effect and 100 is complete control; 13 to 15 days
# Outline: as §1
# [4] = test system: ragweed (common ragweed, Ambrosia elatior); assay: Test A preemergence, visual injury rating; settings: for Ragweed plant response rating: 0 to 100 scale (0 no effect, 100 complete control)
# Outline: (§2)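 Visual 0–100 rating (100 = complete control) taken about 10 d post-treatment relative to untreated checks. Preemergence: directed soil spray on sown loam/sand pots. Postemergence: seedlings 2–10 cm, 1–2 leaf. Non-phytotoxic solvent formulation with surfactant.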
# kochia (Kochia scoparia) = assay: Test A preemergence, visual injury rating; settings: for Kochia plant response rating: 0 to 100 scale (0 no effect, 100 complete control)
# Outline: as §2
# [5] = test system: barnyardgrass (Echinochloa crus-galli); assay: Test A preemergence, visual injury rating; settings: for Barnyardgrass plant response rating: 0 to 100 scale (0 no effect, 100 complete control)
# Outline: as §2
# [6] = test system: giant foxtail (Setaria faberii); assay: Test A preemergence, visual injury rating; settings: for Foxtail, Giant plant response rating: 0 to 100 scale (0 no effect, 100 complete control)
# Outline: as §2
# [7] = test system: pigweed (Amaranthus retroflexus); assay: Test A preemergence, visual injury rating; settings: for Pigweed plant response rating: 0 to 100 scale (0 no effect, 100 complete control)
# Outline: as §2
# [8] = test system: Italian ryegrass (Lolium multiflorum); assay: Test A preemergence, visual injury rating; settings: for Ryegrass, Italian plant response rating: 0 to 100 scale (0 no effect, 100 complete control)
# Outline: as §2
# [9] = test system: ragweed (common ragweed, Ambrosia elatior); assay: Test C preemergence, plant response rating; settings: Preemergence
# Outline: (§3)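 Greenhouse plants rated visually against untreated controls 13–15 d after treatment, scale 0 = no effect to 100 = complete control. Postemergence sprays went onto potted plants 2–18 cm tall (1–4 leaves); preemergence sprays onto soil freshly sown in loam–sand or silt loam, chemicals formulated in non-phytotoxic solvent with surfactant.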
# [10] = test system: crabgrass, large (large crabgrass, Digitaria sanguinalis); assay: Test C preemergence, plant response rating; settings: Preemergence
# Outline: as §3
# [11] = test system: blackgrass (Alopecurus myosuroides); assay: Test C preemergence, plant response rating; settings: Preemergence
# Outline: as §3
# [12] = test system: foxtail, giant (giant foxtail, Setaria faberii); assay: Test C preemergence, plant response rating; settings: Preemergence
# Outline: as §3
# soybean (Glycine max) = assay: Test C preemergence, plant response rating; settings: Preemergence
# Outline: as §3
# corn (Zea mays) = assay: Test C preemergence, plant response rating; settings: Preemergence
# Outline: as §3
# [13] = test system: oilseed rape (Brassica napus); assay: Test C preemergence, plant response rating; settings: Preemergence
# Outline: as §3
# [14] = test system: ryegrass, Italian (Italian ryegrass, Lolium multiflorum); assay: Test C preemergence, plant response rating; settings: Preemergence
# Outline: as §3
# [15] = 31 g ai/ha, 0 to 100 scale, 0 no effect, 100 complete control
structure (smiles),measurement,setting,value
N#Cc1cccc(Oc2ncc(Cl)cn2)c1COCCC(F)(F)F [Compound 80],"Plant response rating, Rice",rice (Oryza sativa),55
same,"Plant response rating, Sedge, Umbrella",[1],100
same,"Plant response rating, Barnyardgrass",[2],75
same,"Plant response rating, Ducksalad",[3],100
same,"Plant response rating, Ragweed",[4]; [15],0
same,Ragweed plant response rating,[4]; 125 g ai/ha,20
same,"Plant response rating, Kochia",kochia (Kochia scoparia); [15],100
same,Kochia plant response rating,kochia (Kochia scoparia); 125 g ai/ha,100
same,"Plant response rating, Barnyardgrass",[5]; [15],60
same,Barnyardgrass plant response rating,[5]; 125 g ai/ha,100
same,"Plant response rating, Foxtail, Giant",[6]; [15],90
same,"Foxtail, Giant plant response rating",[6]; 125 g ai/ha,100
same,"Plant response rating, Pigweed",[7]; [15],100
same,Pigweed plant response rating,[7]; 125 g ai/ha,100
same,"Plant response rating, Ryegrass, Italian",[8]; [15],0
same,"Ryegrass, Italian plant response rating",[8]; 125 g ai/ha,50
same,"Plant response rating, Ragweed","[9]; 125 g ai/ha, scale of 0 to 100",20
same,"Plant response rating, Ragweed","[9]; 31 g ai/ha, scale 0 to 100",0
same,"Plant response rating, Ragweed","[9]; 62 g ai/ha, scale 0 to 100",5
same,"Plant response rating, Crabgrass, Large","[10]; 62 g ai/ha, scale of 0 to 100",100
same,"Plant response rating, Crabgrass, Large","[10]; 125 g ai/ha, scale of 0 to 100",98
same,"Plant response rating, Crabgrass, Large","[10]; 16 g ai/ha, scale 0 to 100",55
same,"Plant response rating, Crabgrass, Large","[10]; 31 g ai/ha, scale 0 to 100",80
same,"Plant response rating, Blackgrass","[11]; 62 g ai/ha, scale of 0 to 100",70
same,"Plant response rating, Blackgrass","[11]; 125 g ai/ha, scale of 0 to 100",90
same,"Plant response rating, Blackgrass","[11]; 16 g ai/ha, scale 0 to 100",5
same,"Plant response rating, Blackgrass","[11]; 31 g ai/ha, scale 0 to 100",10
same,"Plant response rating, Foxtail, Giant","[12]; 62 g ai/ha, scale of 0 to 100",85
same,"Plant response rating, Foxtail, Giant","[12]; 125 g ai/ha, scale of 0 to 100",100
same,"Plant response rating, Foxtail, Giant","[12]; 31 g ai/ha, scale 0 to 100",40
same,"Plant response rating, Soybean","soybean (Glycine max); 125 g ai/ha, scale of 0 to 100",85
same,"Plant response rating, Soybean","soybean (Glycine max); 31 g ai/ha, scale 0 to 100",20
same,"Plant response rating, Soybean","soybean (Glycine max); 62 g ai/ha, scale 0 to 100",40
same,"Plant response rating, Corn","corn (Zea mays); 62 g ai/ha, scale of 0 to 100",5
same,"Plant response rating, Corn","corn (Zea mays); 125 g ai/ha, scale of 0 to 100",20
same,"Plant response rating, Corn","corn (Zea mays); 16 g ai/ha, scale 0 to 100",0
same,"Plant response rating, Corn","corn (Zea mays); 31 g ai/ha, scale 0 to 100",5
same,"Plant response rating, Oilseed Rape","[13]; 125 g ai/ha, scale of 0 to 100",100
same,"Plant response rating, Oilseed Rape","[13]; 31 g ai/ha, scale 0 to 100",80
same,"Plant response rating, Oilseed Rape","[13]; 62 g ai/ha, scale 0 to 100",70
same,"Plant response rating, Ryegrass, Italian","[14]; 125 g ai/ha, scale of 0 to 100",25
same,"Plant response rating, Ryegrass, Italian","[14]; 31 g ai/ha, scale 0 to 100",0
same,"Plant response rating, Ryegrass, Italian","[14]; 62 g ai/ha, scale 0 to 100",5
O=C(OCCC(F)(F)F)c1c(Br)cccc1Oc1ncc(Br)cn1 [Compound 33],"Plant response rating, Rice",rice (Oryza sativa),0
same,"Plant response rating, Sedge, Umbrella",[1],95
same,"Plant response rating, Barnyardgrass",[2],0
same,"Plant response rating, Ducksalad",[3],80
same,Ragweed plant response rating,[4]; 125 g ai/ha,0
same,Ragweed plant response rating,[4]; 500 g ai/ha,20
same,Kochia plant response rating,kochia (Kochia scoparia); 125 g ai/ha,60
same,Kochia plant response rating,kochia (Kochia scoparia); 500 g ai/ha,100
same,Barnyardgrass plant response rating,[5]; 125 g ai/ha,100
same,Barnyardgrass plant response rating,[5]; 500 g ai/ha,100
same,"Foxtail, Giant plant response rating",[6]; 125 g ai/ha,100
same,"Foxtail, Giant plant response rating",[6]; 500 g ai/ha,100
same,Pigweed plant response rating,[7]; 125 g ai/ha,100
same,Pigweed plant response rating,[7]; 500 g ai/ha,100
same,"Ryegrass, Italian plant response rating",[8]; 125 g ai/ha,40
same,"Ryegrass, Italian plant response rating",[8]; 500 g ai/ha,100
same,"Plant response rating, Ragweed","[9]; 125 g ai/ha, scale of 0 to 100",50
same,"Plant response rating, Ragweed","[9]; 16 g ai/ha, scale 0 to 100",55
same,"Plant response rating, Ragweed","[9]; 31 g ai/ha, scale 0 to 100",35
same,"Plant response rating, Ragweed","[9]; 62 g ai/ha, scale 0 to 100",40
same,"Plant response rating, Crabgrass, Large","[10]; 62 g ai/ha, scale of 0 to 100",100
same,"Plant response rating, Crabgrass, Large","[10]; 125 g ai/ha, scale of 0 to 100",100
same,"Plant response rating, Crabgrass, Large","[10]; 16 g ai/ha, scale 0 to 100",75
same,"Plant response rating, Crabgrass, Large","[10]; 31 g ai/ha, scale 0 to 100",98
same,"Plant response rating, Blackgrass","[11]; 62 g ai/ha, scale of 0 to 100",70
same,"Plant response rating, Blackgrass","[11]; 125 g ai/ha, scale of 0 to 100",90
same,"Plant response rating, Blackgrass","[11]; 16 g ai/ha, scale 0 to 100",0
same,"Plant response rating, Blackgrass","[11]; 31 g ai/ha, scale 0 to 100",10
same,"Plant response rating, Foxtail, Giant","[12]; 62 g ai/ha, scale of 0 to 100",98
same,"Plant response rating, Foxtail, Giant","[12]; 125 g ai/ha, scale of 0 to 100",100
same,"Plant response rating, Foxtail, Giant","[12]; 16 g ai/ha, scale 0 to 100",60
same,"Plant response rating, Foxtail, Giant","[12]; 31 g ai/ha, scale 0 to 100",95
same,"Plant response rating, Soybean","soybean (Glycine max); 125 g ai/ha, scale of 0 to 100",30
same,"Plant response rating, Soybean","soybean (Glycine max); 16 g ai/ha, scale 0 to 100",15
same,"Plant response rating, Corn","corn (Zea mays); 62 g ai/ha, scale of 0 to 100",10
same,"Plant response rating, Corn","corn (Zea mays); 125 g ai/ha, scale of 0 to 100",10
same,"Plant response rating, Corn","corn (Zea mays); 16 g ai/ha, scale 0 to 100",0
same,"Plant response rating, Corn","corn (Zea mays); 31 g ai/ha, scale 0 to 100",0
same,"Plant response rating, Oilseed Rape","[13]; 125 g ai/ha, scale of 0 to 100",100
same,"Plant response rating, Oilseed Rape","[13]; 16 g ai/ha, scale 0 to 100",50
same,"Plant response rating, Oilseed Rape","[13]; 31 g ai/ha, scale 0 to 100",80
same,"Plant response rating, Oilseed Rape","[13]; 62 g ai/ha, scale 0 to 100",85
same,"Plant response rating, Ryegrass, Italian","[14]; 125 g ai/ha, scale of 0 to 100",85
same,"Plant response rating, Ryegrass, Italian","[14]; 16 g ai/ha, scale 0 to 100",0
same,"Plant response rating, Ryegrass, Italian","[14]; 31 g ai/ha, scale 0 to 100",30
same,"Plant response rating, Ryegrass, Italian","[14]; 62 g ai/ha, scale 0 to 100",30
